The values below come from ChEMBL document CHEMBL1201862, “PubChem BioAssay data set” (2004).

Assay in all cases: inhibition of tumour cell growth, NCI panel, 48 h
The test system of experiment [1] is RXF 393.
Experiment [2] relates to U-251.
The test system of experiment [3] is RPMI-8226.
Experiment [4] relates to DMS-273.
The subject of experiment [5] is BT-549.
In experiment [6] the test system is Malme-3M.
Experiment [7] deals with NCI-H522.
Experiment [8] has as its system DLD-1.
The test system of experiment [9] is T47D.
Experiment [10] relates to LXFL 529.
Experiment [11] has as its system NCI/ADR-RES.
The test system of experiment [12] is HL-60.
Experiment [13] has as its system KM12.
Experiment [14] deals with NCI-H460.
Experiment [15] has as its system A549.
The test system of experiment [16] is SK-MEL-28.
In experiment [17] the test system is LOX IMVI.
For experiment [18], the system named is COLO 205.
The subject of experiment [19] is NCI-H23.
The test system of experiment [20] is OVCAR-3.

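Step 1: Grow cells in 96-well plates. Step 2: Expose to compound for 48 hours at 5 concentrations. Step 3: Interpolate endpoints linearly; if unreached, use highest concentration. The concentration for 50% growth inhibition is given as GI50.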 Active and inactive are the calls of the source. Cut-off read from the data, not from the text of the source: active = GI50 up to about 1.1 µM and inactive = higher.

For `C/C(=N\NC(=S)N1CCN(c2ccccn2)CC1)c1ncccn1`, the GI50 is 1.65 µM (inactive) in experiment [1]; 0.0369 µM (active) in experiment [2]; 0.0131 µM (active) in experiment [3]; 0.0114 µM (active) in experiment [4]; 4.67 µM (inactive) in experiment [5]; 0.267 µM (active) in experiment [6]. Besides, the GI50 was 0.0538 µM (active) in [7]; 0.00272 µM (active) in experiment [8]; 0.0953 µM (active) in experiment [9]; 0.001 µM (active) in experiment [10]; 0.0179 µM (active) in [11]; 0.00752 µM (active) in [12]. Further, the GI50 in [13] is 0.254 µM (active); in [14] it was 0.0726 µM (active); in experiment [15] it was 0.166 µM (active); in experiment [16], 0.417 µM (active); in [17] it was 0.0986 µM (active); in experiment [18], 0.0569 µM (active). In [19], the GI50 is < 0.0288 µM (active).
Regarding `CC(=O)O[C@H]1CCC2[C@@H]3CC[C@]4(C)CC(=O)C=C[C@]4(C)C3CC[C@@]21C` (some centres not stated), the GI50 in experiment [1] was 24.2 µM (inactive); in experiment [2], 17.7 µM (inactive); in experiment [3] it was 23 µM (inactive); in experiment [4], 17.7 µM (inactive); in experiment [5] it was 16.4 µM (inactive); in [6] it was 19.4 µM (inactive). Besides, the GI50 was 24.6 µM (inactive) in experiment [7]; 22.6 µM (inactive) in experiment [8]; 14.8 µM (inactive) in experiment [10]; 22 µM (inactive) in experiment [11]; 20.4 µM (inactive) in experiment [12]; 17.5 µM (inactive) in experiment [20]. Besides, the GI50 is 20.6 µM (inactive) in [13]; 17.5 µM (inactive) in experiment [14]; 18.3 µM (inactive) in experiment [15]; 18.5 µM (inactive) in [16]; 16.9 µM (inactive) in experiment [17]; 17.2 µM (inactive) in [18]. Further, the GI50 in experiment [19] was 21.9 µM (inactive).
`O=C(CC1(O)C(=O)Nc2c(Cl)cc(Cl)cc21)c1cccc2ccccc12` (configuration not stated): the GI50 in experiment [1] is 20.6 µM (inactive); in experiment [2], 15.5 µM (inactive); in [3] it was 19.6 µM (inactive); in experiment [4], 13.7 µM (inactive); in experiment [6] it was 19.5 µM (inactive); in experiment [7] it was 14.3 µM (inactive). The GI50 in experiment [8] was 15.8 µM (inactive); in experiment [10] it was 15.3 µM (inactive); in experiment [12] it was 10.5 µM (inactive); in experiment [20], 16.1 µM (inactive); in [13] it was 16 µM (inactive); in experiment [14], 16.6 µM (inactive). Further, the GI50 in [15] is 15.1 µM (inactive); in [16], 18.7 µM (inactive); in [17] it was 17.7 µM (inactive); in experiment [18] it was 17 µM (inactive); in [19] it was 16.9 µM (inactive).
Take `CCOC(OC(C)=O)[C@@H]1C=C[C@H](C)N(c2ccc([N+](=O)[O-])cc2)O1` (some centres not stated): the GI50 in experiment [1] is 0.759 µM (active); in [2], 2.74 µM (inactive); in experiment [3], 2.06 µM (inactive); in [4] it was 3.19 µM (inactive); in experiment [6], 7.98 µM (inactive); in experiment [7], 3.16 µM (inactive). Further, the GI50 in experiment [8] is 2.59 µM (inactive); in experiment [10] it was 3.65 µM (inactive); in experiment [12] it was 1.82 µM (inactive); in experiment [20], 5.66 µM (inactive); in [13], 2.5 µM (inactive); in experiment [14] it was 10.6 µM (inactive). Moreover, the GI50 in [15] was 20.2 µM (inactive); in [16], 3.01 µM (inactive); in [17], 1.87 µM (inactive); in experiment [18], 11.9 µM (inactive); in experiment [19] it was 2.84 µM (inactive).
